Reference: ChEMBL document CHEMBL1201862, “PubChem BioAssay data set” (2004)
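Where inhibition never reached the appropriate level, the endpoint shown equals the highest concentration tested. Otherwise, values were interpolated linearly from a five-concentration, 48-hour dose response in 96-well plates. GI50 marks 50% less growth.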 The source made the active and inactive calls. Rule as the data show it: active = GI50 up to about 1.1 µM and inactive = higher.

Legend:
Assay in all cases: NCI tumour cell line growth inhibition, 48 h
[1] = system: UACC-62
[2] = system: HCC 2998
[3] = system: OVCAR-8
[4] = system: SK-MEL-5
[5] = system: SK-MEL-28
[6] = system: OVCAR-5
[7] = system: IGROV-1
[8] = system: NCI-H226
[9] = system: HT-29
[10] = system: A549
[11] = system: NCI-H522
[12] = system: U-251
[13] = system: RPMI-8226
[14] = system: COLO 205
[15] = system: KM12
[16] = system: SK-OV-3
[17] = system: SF-539
[18] = system: UACC-257
[19] = system: EKVX

Compound | GI50 [1] | GI50 [2] | GI50 [3] | GI50 [4] | GI50 [5] | GI50 [6] | GI50 [7] | GI50 [8] | GI50 [9] | GI50 [10] | GI50 [11] | GI50 [12] | GI50 [13] | GI50 [14] | GI50 [15] | GI50 [16] | GI50 [17] | GI50 [18] | GI50 [19]
Cc1cn(C2OC(CO[Si](C)(C)C(C)(C)C)C(N(C)O[Si](C)(C)C(C)(C)C)C2[Se]c2ccccc2)c(=O)[nH]c1=O (stereo not drawn) | 8.75 µM (inactive) | 0.0325 µM (active) | 3.74 µM (inactive) | 4.16 µM (inactive) | 5.56 µM (inactive) | 2.82 µM (inactive) | 8.17 µM (inactive) | 3.95 µM (inactive) | 3.34 µM (inactive) | 4.48 µM (inactive) | 3.25 µM (inactive) | 3 µM (inactive) | 3.18 µM (inactive) | 5.38 µM (inactive) | 3.66 µM (inactive) | 17.4 µM (inactive) | – | – | –
CC12ON=C(c3ccccc3)N1C=CN1C(c3ccccc3)=NOC12 (stereo not drawn) | > 100 µM (inactive) | > 100 µM (inactive) | > 100 µM (inactive) | 13 µM (inactive) | – | > 100 µM (inactive) | > 100 µM (inactive) | > 100 µM (inactive) | – | > 100 µM (inactive) | > 100 µM (inactive) | – | – | 37.2 µM (inactive) | > 100 µM (inactive) | > 100 µM (inactive) | > 100 µM (inactive) | > 100 µM (inactive) | > 100 µM (inactive)
Cc1ccc(NC(=O)CC2C(=O)Nc3ccccc3S2(=O)=O)cc1C (stereo not drawn) | 84.7 µM (inactive) | > 100 µM (inactive) | > 100 µM (inactive) | > 100 µM (inactive) | > 100 µM (inactive) | > 100 µM (inactive) | > 100 µM (inactive) | > 100 µM (inactive) | > 100 µM (inactive) | > 100 µM (inactive) | > 100 µM (inactive) | > 100 µM (inactive) | 62.8 µM (inactive) | – | – | – | > 100 µM (inactive) | > 100 µM (inactive) | > 100 µM (inactive)
CC(=O)OCC1OC(Sc2ccccn2)C=CC1OC(C)=O (stereo not drawn) | > 100 µM (inactive) | > 100 µM (inactive) | > 100 µM (inactive) | > 100 µM (inactive) | > 100 µM (inactive) | > 100 µM (inactive) | > 100 µM (inactive) | > 100 µM (inactive) | > 100 µM (inactive) | > 100 µM (inactive) | > 100 µM (inactive) | > 100 µM (inactive) | – | > 100 µM (inactive) | > 100 µM (inactive) | > 100 µM (inactive) | > 100 µM (inactive) | > 100 µM (inactive) | > 100 µM (inactive)
Cc1cc(N)c(C)c2c1[nH]c1ccc(O)cc12 | – | > 100 µM (inactive) | 88.5 µM (inactive) | – | > 100 µM (inactive) | > 100 µM (inactive) | – | > 100 µM (inactive) | > 100 µM (inactive) | > 100 µM (inactive) | 17 µM (inactive) | 88.5 µM (inactive) | 48.4 µM (inactive) | 47.9 µM (inactive) | > 100 µM (inactive) | – | > 100 µM (inactive) | > 100 µM (inactive) | > 100 µM (inactive)
NS(=O)(=O)c1cc(S(N)(=O)=O)c(NC(=O)Nc2ccc(Cl)c(Cl)c2)c(Cl)c1Cl | > 100 µM (inactive) | > 100 µM (inactive) | > 100 µM (inactive) | > 100 µM (inactive) | > 100 µM (inactive) | > 100 µM (inactive) | > 100 µM (inactive) | 96.2 µM (inactive) | > 100 µM (inactive) | > 100 µM (inactive) | > 100 µM (inactive) | > 100 µM (inactive) | > 100 µM (inactive) | 40.6 µM (inactive) | > 100 µM (inactive) | > 100 µM (inactive) | – | > 100 µM (inactive) | > 100 µM (inactive)
